What follows are molecules tested against cAMP-dependent protein kinase catalytic subunit alpha (Bos taurus, UniProt P00517) (assay: CDK Kinase Inhibition Assay). Conditions: 25 °C.

SMILES	IC50 [µM]
COc1ccc2c3c4c(c5c(ccc6ccn(C)c65)c3n(CCN3CCC[C@H]3CO)c2c1)C(=O)NC4=O [3-{2-[(2S)-2-(hydroxymethyl)pyrrolidin-1-yl]ethyl}-6-methoxy-18-methyl-3,13,18-triazahexacyclo[14.7.0.0^{2,10}.0^{4,9}.0^{11,15}.0^{17,21}]tricosa-1(16),2(10),4(9),5,7,11(15),17(21),19,22-nonaene-12,14-dione]	> 20
Cc1cc2ccn(C)c2c2c3c(c4c5ccc(F)cc5[nH]c4c12)C(=O)NC3=O [6-fluoro-18,23-dimethyl-3,13,18-triazahexacyclo[14.7.0.0^{2,10}.0^{4,9}.0^{11,15}.0^{17,21}]tricosa-1(16),2(10),4(9),5,7,11(15),17(21),19,22-nonaene-12,14-dione]	> 20
O=C1NC(=O)c2c1c1c(ccc3cc[nH]c31)c1c2c2ccccc2n1CCCO [3-(3-hydroxypropyl)-3,13,18-triazahexacyclo[14.7.0.0^{2,10}.0^{4,9}.0^{11,15}.0^{17,21}]tricosa-1(16),2(10),4(9),5,7,11(15),17(21),19,22-nonaene-12,14-dione]	> 20
CCOc1ccc2c(c1)[nH]c1c3ccc4ccn(C)c4c3c3c(c21)C(=O)NC3=O [6-ethoxy-18-methyl-3,13,18-triazahexacyclo[14.7.0.0^{2,10}.0^{4,9}.0^{11,15}.0^{17,21}]tricosa-1(16),2(10),4(9),5,7,11(15),17(21),19,22-nonaene-12,14-dione]	> 20
COc1ccc2c(c1)[nH]c1c2c2c(c3c1c(C)cc1ccn(C)c13)C(=O)NC2=O [6-methoxy-18,23-dimethyl-3,13,18-triazahexacyclo[14.7.0.0^{2,10}.0^{4,9}.0^{11,15}.0^{17,21}]tricosa-1(16),2(10),4(9),5,7,11(15),17(21),19,22-nonaene-12,14-dione]	> 20
Cn1ccc2ccc3c4[nH]c5c(CCO)cccc5c4c4c(c3c21)C(=O)NC4=O [5-(2-hydroxyethyl)-18-methyl-3,13,18-triazahexacyclo[14.7.0.0^{2,10}.0^{4,9}.0^{11,15}.0^{17,21}]tricosa-1(16),2(10),4(9),5,7,11(15),17(21),19,22-nonaene-12,14-dione]	> 20
Cn1ccc2ccc3c(c4c(c5c6ccccc6n(CCCO)c35)C(=O)NC4=O)c21 [3-(3-hydroxypropyl)-18-methyl-3,13,18-triazahexacyclo[14.7.0.0^{2,10}.0^{4,9}.0^{11,15}.0^{17,21}]tricosa-1(16),2(10),4(9),5,7,11(15),17(21),19,22-nonaene-12,14-dione]	> 2
COc1cccc2c1[nH]c1c3ccc4ccn(C)c4c3c3c(c21)C(=O)NC3=O [5-methoxy-18-methyl-3,13,18-triazahexacyclo[14.7.0.0^{2,10}.0^{4,9}.0^{11,15}.0^{17,21}]tricosa-1(16),2(10),4(9),5,7,11(15),17(21),19,22-nonaene-12,14-dione]	> 20
Cn1ccc2ccc3c4[nH]c5c(CCCO)cccc5c4c4c(c3c21)C(=O)NC4=O [5-(3-hydroxypropyl)-18-methyl-3,13,18-triazahexacyclo[14.7.0.0^{2,10}.0^{4,9}.0^{11,15}.0^{17,21}]tricosa-1(16),2(10),4(9),5,7,11(15),17(21),19,22-nonaene-12,14-dione]	> 20
COc1ccc2c(c1)[nH]c1c3ccc4ccn(C)c4c3c3c(c21)C(=O)NC3=O [6-methoxy-18-methyl-3,13,18-triazahexacyclo[14.7.0.0^{2,10}.0^{4,9}.0^{11,15}.0^{17,21}]tricosa-1(16),2(10),4(9),5,7,11(15),17(21),19,22-nonaene-12,14-dione]	> 20
Cn1ccc2ccc3c4[nH]c5cc(Br)ccc5c4c4c(c3c21)C(=O)NC4=O [6-bromo-18-methyl-3,13,18-triazahexacyclo[14.7.0.0^{2,10}.0^{4,9}.0^{11,15}.0^{17,21}]tricosa-1(16),2(10),4(9),5,7,11(15),17(21),19,22-nonaene-12,14-dione]	> 20
O=C1NC(=O)c2c1c1c(ccc3cc[nH]c31)c1[nH]c3ccccc3c21 [3,13,18-triazahexacyclo[14.7.0.0^{2,10}.0^{4,9}.0^{11,15}.0^{17,21}]tricosa-1(16),2(10),4(9),5,7,11(15),17(21),19,22-nonaene-12,14-dione]	> 2

Continued, values first:

IC50 [µM]	SMILES
> 20	Cn1ccc2ccc3c4[nH]c5cccc(CO)c5c4c4c(c3c21)C(=O)NC4=O [8-(hydroxymethyl)-18-methyl-3,13,18-triazahexacyclo[14.7.0.0^{2,10}.0^{4,9}.0^{11,15}.0^{17,21}]tricosa-1(16),2(10),4(9),5,7,11(15),17(21),19,22-nonaene-12,14-dione]
> 20	Cn1ccc2cc(F)c3c4[nH]c5ccccc5c4c4c(c3c21)C(=O)NC4=O [23-fluoro-18-methyl-3,13,18-triazahexacyclo[14.7.0.0^{2,10}.0^{4,9}.0^{11,15}.0^{17,21}]tricosa-1(16),2(10),4(9),5,7,11(15),17(21),19,22-nonaene-12,14-dione]
> 20	Cc1cc2ccn(C)c2c2c3c(c4c5ccc(C(F)(F)F)cc5[nH]c4c12)C(=O)NC3=O [18,23-dimethyl-6-(trifluoromethyl)-3,13,18-triazahexacyclo[14.7.0.0^{2,10}.0^{4,9}.0^{11,15}.0^{17,21}]tricosa-1(16),2(10),4(9),5,7,11(15),17(21),19,22-nonaene-12,14-dione]
> 20	Cn1ccc2ccc3c4[nH]c5c(CCN6CCOCC6)cccc5c4c4c(c3c21)C(=O)NC4=O [18-methyl-5-[2-(morpholin-4-yl)ethyl]-3,13,18-triazahexacyclo[14.7.0.0^{2,10}.0^{4,9}.0^{11,15}.0^{17,21}]tricosa-1(16),2(10),4(9),5,7,11(15),17(21),19,22-nonaene-12,14-dione]
> 2	CCn1ccc2ccc3c4[nH]c5ccccc5c4c4c(c3c21)C(=O)NC4=O [18-ethyl-3,13,18-triazahexacyclo[14.7.0.0^{2,10}.0^{4,9}.0^{11,15}.0^{17,21}]tricosa-1(16),2(10),4(9),5,7,11(15),17(21),19,22-nonaene-12,14-dione]
> 20	Cn1ccc2ccc3c4[nH]c5ccccc5c4c4c(c3c21)C(=O)NC4=O [18-methyl-3,13,18-triazahexacyclo[14.7.0.0^{2,10}.0^{4,9}.0^{11,15}.0^{17,21}]tricosa-1(16),2(10),4(9),5,7,11(15),17(21),19,22-nonaene-12,14-dione]
> 20	Cn1ccc2ccc3c4[nH]c5cc(C#N)ccc5c4c4c(c3c21)C(=O)NC4=O [18-methyl-12,14-dioxo-3,13,18-triazahexacyclo[14.7.0.0^{2,10}.0^{4,9}.0^{11,15}.0^{17,21}]tricosa-1(16),2(10),4(9),5,7,11(15),17(21),19,22-nonaene-6-carbonitrile]
> 20	COc1ccc2[nH]c3c4ccc5ccn(C)c5c4c4c(c3c2c1)C(=O)NC4=O [7-methoxy-18-methyl-3,13,18-triazahexacyclo[14.7.0.0^{2,10}.0^{4,9}.0^{11,15}.0^{17,21}]tricosa-1(16),2(10),4(9),5,7,11(15),17(21),19,22-nonaene-12,14-dione]
> 20	Cn1ccc2ccc3c4[nH]c5cccc(F)c5c4c4c(c3c21)C(=O)NC4=O [8-fluoro-18-methyl-3,13,18-triazahexacyclo[14.7.0.0^{2,10}.0^{4,9}.0^{11,15}.0^{17,21}]tricosa-1(16),2(10),4(9),5,7,11(15),17(21),19,22-nonaene-12,14-dione]

Source: BindingDB's records for doi:10.1016/s0960-894x(03)00461-x (Eli Lilly, 2003)
